Here are results for 26 compounds from US11939301B2, “5HT1F receptor agonists and mitochondrial biogenesis” (MUSC FOUNDATION FOR RESEARCH DEVELOPMENT, priority 2016, dated 2024).

Assay [1] concerns renal proximal tubule cells. The assay is described as follows: In-vitro mitochondrial biogenesis dose response (FCCP-uncoupled OCR, Seahorse). In kind it is cell-based. The following applies: Oryctolagus cuniculus; rabbit renal proximal tubule cells, 24 h incubation, uncoupled OCR normalized to vehicle, Hill fit, N=4-6. The protocol: OCRs were measured using a Seahorse Bioscience analyzer (North Billerica, Mass.) before (basal) and after addition of […] FCCP, an ionophore that uncouples electron transport from ATP generation. The selective 5-HT1F receptor agonists LY334370 (4-fluoro-N-[3-(1-methyl-4-piperidinyl)-1H-indol-5-yl]benzamide) and LY344864 (N-[(3R)-3-(dimethylamino)-2,3,4,9-tetrahydro-1H-carbazol-6-yl]-4-fluorobenzamide), and the nonselective 5-HT receptor agonist a-methyl 5-HT were purchased from Tocris (Ellisville, Mo.).
In-vitro mitochondrial biogenesis dose responses (reported as EC50 values) were determined from a modification of the assay described in Example 21. […] Compounds were incubated at different doses with renal cells for 24 h after which their basal respiration and elevated FCCP-induced uncoupled oxygen consumption rates (OCRs) were measured using a Seahorse Bioscience analyzer (Beeson et al., 2010). Uncoupled OCRs were normalized to vehicle control OCRs and the rates that decrease at high concentrations of drug were eliminated. The remaining dose-dependent responses were fit to a standard Hill equation using non-linear regression to obtain the EC50 values for replicates of N=4-6 where N is the number of individual rabbit renal cell isolations tested for each compound.

Assay [2] relates to podocytes (1-1P4G5 podocyte clone). The assay is described as follows: Podocyte mitochondrial biogenesis (FCCP-uncoupled oxygen consumption rate). The class given is cell-based. As to conditions: Mus musculus; differentiated podocytes, FCCP 1 μM uncoupled rate normalized to vehicle, Hill fit. The protocol: Fully differentiated podocytes were assayed using increased mitochondrial reserve capacity (measured as FCCP-uncoupled oxygen consumption rate) as a measure of mitochondrial biogenesis.
For these studies the 1-1P4G5 podocyte clone developed in the Kopp lab at the NIH were used. (25) These cells expressed a SV40-driven temperature sensitive T antigen that enabled the cells to proliferate in an undifferentiated state at the permissive temperature of 33° C. and then after 5 days of culture at 37° C. the cells are fully differentiated as mature podocytes. The differentiated cells were maintained in Advanced RPMI 1640 with 10% fetal calf serum and then plated at 1.5 million cells/96-well Seahorse plate for 48 h prior to treatment with test compound, vehicle control (VC) or validated 5-HT1F agonists. The plates were then transferred to a Seahorse XF96 Instrument during which basal and FCCP-uncoupled rates were measured (the [FCCP]=1 μM). Drugs were treated at a range of 1 nM, 10 nM, 100 nM, 500 nM, and 1 μM and the uncoupled rates were normalized to vehicle control, <0.2% DMSO in media. The doses responses were fit to a Hill function and the EC50 values were calculated from the non-linear regression.

The subject of assay [3] is ischemia/reperfusion-induced AKI. As to conditions: following ischemia/reperfusion-induced AKI; cited from earlier work.
Another assay relates to RPTC. As to conditions: cited from earlier work; for maximal mitochondrial respiration / mitochondrial proteins (ATP synthase β, Cox1, NDUFB8): RPTC, 1-100 nM.
Assay [4] deals with murine renal cortex, heart, and liver. The following applies: cited from earlier work.
Assay [5] has as its system murine model of glomerular disease. The assay is described as follows: Nephrotoxic serum (NTS) induced chronic kidney disease model, albuminuria. In kind it is in vivo, mouse. As to conditions: C57/BL mice, 2 mg/kg once per day, FIG. 1. The text has this:
Renal dysfunction was modeled in mice using the nephrotoxic serum (NTS) induced model. The classical Adriamycin model for glomerular studies relies critically on dosing profiles, has resistance in some murine species, off-target effects in others, and required days (10 days) instead of hours for observable albuminuria (marker for renal compromise, determined by urine collection) compared to the NTS counterpart. (Mallipattu, S. K.; He, J. C. Am. J. Physiol. Renal Physiol. 2016, 311, F46-F51; Pippin, J. W.; Brinkkoetter, P. T.; Cormack-Aboud, F. C.; Durvasula, R. V.; Hauser, P. V.; Kowalewska, J.; Krofft, R. D.; Logar, C. M.; Marshall, C. B.; Ohse, T.; Shankland, S. J. Am. J. Physiol. Renal Physiol. 2009, 296, F213-F229). Conversely, the NTS model is quick onset (4 h) and has wide species reproducibility.
In this experiment, induction of the nephrotoxic serum (NTS) model ([…] injection) for glomerular decline was performed using C57/BL mice (15 mice total).
Urine albumin/creatinine ratios were measured in control (NTS+vehicle) and drug treated mice (NTS+drug (example 6) for pre-injection, day 2, day 6, day 12 and day 14. Drug was administered once per day at 2 mg/kg. Thus, it is expected that the compounds of the invention are useful to treat chronic kidney disease.

In the case of `COCC(=O)N1CCc2ccc(Nc3nc4ccccc4o3)cc21` [Example 12, 1-(6-(benzo[d]oxazol-2-ylamino)indolin-1-yl)-2-methoxyethan-1-one], the EC50 in assay [1] came to 2 nM. Take `COCC(=O)N1CCc2ccc(N(S(=O)(=O)c3ccccc3)S(=O)(=O)c3ccccc3)cc21` [Example 19, N-(1-(2-methoxyacetyl)indolin-6-yl)-N-(phenylsulfonyl)benzenesulfonamide]: the EC50 amounted to 2 nM in assay [1] and 20 nM in assay [2]. With `Cc1ccc(S(=O)(=O)Nc2cccc(C(=O)N3CCN(C)CC3)n2)cc1` [Example 8, 4-methyl-N-(6-(4-methylpiperazine-1-carbonyl)pyridin-2-yl)benzenesulfonamide], the response in assay [1] was half-maximal at 0.2 nM (EC50). For the compound `CN(C)[C@@H]1CCc2[nH]c3ccc(NC(=O)c4ccc(F)cc4)cc3c2C1` [LY344864, N-[(3R)-3-(dimethylamino)-2,3,4,9-tetrahydro-1H-carbazol-6-yl]-4-fluorobenzamide], the “recovery of renal function (BUN, KIM-1, mtDNA copy number)” value in assay [3] is listed as “accelerated recovery of renal function”. Moreover, in the assay with RPTC, the maximal mitochondrial respiration entry is reported as “increased” and the “mitochondrial proteins (ATP synthase β, Cox1, NDUFB8)” value is “increased”. Also, the “PGC-1α, Cox1 and NDUFB8 transcript levels and mtDNA copy number” value in assay [4] is listed as “increased”. Take `COCCNC(=O)c1cnc2ccc(OC)cn2c1=O` [Example 1, 7-methoxy-N-(2-methoxyethyl)-4-oxo-4H-pyrido[1,2-a]pyrimidine-3-carboxamide]: in assay [1], the EC50 was 0.02 nM. As for `CN1CCN(C(=O)c2cccc(NC(=O)c3c(F)cc(F)cc3F)n2)CC1` [Example 6, 2,4,6-trifluoro-N-(6-(4-methylpiperazine-1-carbonyl)pyridin-2-yl)benzamide], the “albuminuria (urine albumin/creatinine ratio)” value in assay [5] was “attenuated albuminuria”. Moreover, the values for the 50% effective concentration (EC50) in assay [1] and in assay [2] were 2 nM and 100 nM, respectively. On to `CN1CCN(C(=O)c2cccc(Nc3nc4ccccc4[nH]3)n2)CC1` [Example 10, (6-((1H-benzo[d]imidazol-2-yl)amino)pyridin-2-yl)(4-methylpiperazin-1-yl)methanone], for which the EC50 in assay [1] worked out at 0.2 nM. Compound `COCC(=O)N1CCc2ccc(NC(=O)c3ccc(F)cc3F)cc21` [Example 13, 2,4-difluoro-N-(1-(2-methoxyacetyl)indolin-6-yl)benzamide] displayed an EC50 in assay [1] of 0.02 nM. For `CN(C)CC(=O)N1CCc2ccc(NS(=O)(=O)c3ccccc3)cc21` [Example 25, N-(1-(dimethylglycyl)indolin-6-yl)benzenesulfonamide], it took 0.2 nM to reach a half-maximal effect in assay [2] (EC50). Turning to `COc1cc(OC)c2ncc(C(=O)N3CCN(C)CC3)c(O)c2c1` [Example 5, (4-hydroxy-6,8-dimethoxyquinolin-3-yl)(4-methylpiperazin-1-yl)methanone], the EC50 in assay [1] turned out to be 1 nM; in assay [2], 100 nM. Consider `CN1CCN(C(=O)c2cccc(NC(=O)c3ccccc3)n2)CC1` [Example 11, N-(6-(4-methylpiperazine-1-carbonyl)pyridin-2-yl)benzamide], for which the midpoint of the response in assay [1], the EC50, lay at 2 nM. Regarding `CN1CCC(c2c[nH]c3ccc(NC(=O)c4ccc(F)cc4)cc23)CC1` [LY334370, 4-fluoro-N-[3-(1-methyl-4-piperidinyl)-1H-indol-5-yl]benzamide], in the assay on RPTC, the maximal mitochondrial respiration entry was “increased” and the “mitochondrial proteins (ATP synthase β, Cox1, NDUFB8)” value is “increased”. As to `COCC(=O)N1CCc2ccc(N(C)C(=O)c3c(F)cc(F)cc3F)cc21` [Example 16, 2,4,6-trifluoro-N-(1-(2-methoxyacetyl)indolin-6-yl)-N-methylbenzamide], the EC50 in assay [1] was 0.002 nM. Regarding `CN1CCN(C(=O)c2cccc(NC(=O)N(C)C)n2)CC1` [Example 9, 1,1-dimethyl-3-(6-(4-methylpiperazine-1-carbonyl)pyridin-2-yl)urea], the EC50 in assay [1] amounted to 0.2 nM. On the same count and under the same terms, to `COCCNC(=O)c1cnc(N)n(CCOC)c1=O` [Example 3, 2-amino-N,1-bis(2-methoxyethyl)-6-oxo-1,6-dihydropyrimidine-5-carboxamide] belongs 20 nM. In assay [2], `O=C(Nc1ccc2c(c1)N(C(=O)CN1CCOCC1)CC2)c1ccccc1` [Example 27, N-(1-(2-morpholinoacetyl)indolin-6-yl)benzamide] returned an EC50 of 20 nM. For the compound `COCCNC(=O)c1cnc2c(OC)cc(OC)cc2c1O` [Example 4, 4-hydroxy-6,8-dimethoxy-N-(2-methoxyethyl)quinoline-3-carboxamide], the EC50 in assay [1] was found to be 2 nM; in assay [2], 20 nM. Compound `COCC(=O)N1CCc2ccc(NC(=O)c3cc(F)cc(F)c3)cc21` [Example 17, 3,5-difluoro-N-(1-(2-methoxyacetyl)indolin-6-yl)benzamide] came in with an EC50 in assay [1] of 0.02 nM. In the case of `CCN(CC)CC(=O)N1CCc2ccc(NC(=O)c3ccccc3)cc21` [Example 26, N-(1-(diethylglycyl)indolin-6-yl)benzamide], a half-maximal response in assay [2] (EC50) required 20 nM.

In turn, `COCCNC(=O)c1cnc2ccc(NCCOC)cn2c1=O` [Example 2, N-(2-methoxyethyl)-7-((2-methoxyethyl)amino)-4-oxo-4H-pyrido[1,2-a]pyrimidine-3-carboxamide] showed an EC50 in assay [1] of 0.02 nM. Take `COc1cc(CC(C)N)c(OC)cc1I.Cl` (stereo not shown) [DOT, 1-(2,5-dimethoxy-4-iodophenyl)-2-aminopropane hydrochloride]: the “recovery of mitochondrial function” value with RPTC (renal proximal tubular cells, following oxidant injury) is listed as “accelerated the recovery of mitochondrial function”. Further, the “induction of MB” value in the assay on RPTC (renal proximal tubular cells) is “potent inducer of MB”. Take `COCC(=O)N1CCc2ccc(Nc3nc4ccccc4[nH]3)cc21` [Example 14, 1-(6-((1H-benzo[d]imidazol-2-yl)amino)indolin-1-yl)-2-methoxyethan-1-one]: the concentration for a half-maximal effect (EC50) in assay [1] is 0.02 nM. As for `CN1CCC(C(=O)c2cccc(NC(=O)c3c(F)cc(F)cc3F)n2)CC1` [Example 24, 2,4,6-trifluoro-N-(6-(1-methylpiperidine-4-carbonyl)pyridin-2-yl)benzamide, reference compound], the concentration giving a half-maximal response (EC50) in assay [1] amounted to 0.6 nM; in assay [2], 20 nM. For `CN1CCCN(C(=O)c2cccc(NC(=O)c3c(F)cc(F)cc3F)n2)CC1` [Example 7, 2,4,6-trifluoro-N-(6-(4-methyl-1,4-diazepane-1-carbonyl)pyridin-2-yl)benzamide], in assay [1], the EC50 was 0.2 nM. As for `COCC(=O)N1CCc2ccc(NC(=O)c3cccc(Br)c3)cc21` [Example 20, 3-bromo-N-(1-(2-methoxyacetyl)indolin-6-yl)benzamide], in assay [1], a half-maximal effect (EC50) was put at 0.02 nM. Take `COCC(=O)N1CCc2ccc(NC(=O)c3ccc(F)c(F)c3)cc21` [Example 15, 3,4-difluoro-N-(1-(2-methoxyacetyl)indolin-6-yl)benzamide]: the EC50 in assay [1] turned out to be 0.2 nM.
